The test concerns the target FrbG (Streptomyces rubellomurinus, UniProt Q0ZQ42, H221A). The test is described as follows: NADPH oxidation at […] nm. Conditions: 500 μM substrate; 200 μM NADPH; 5 μM enzyme; 50 mM HEPES. The test is classed as biochemical.

Chain of FrbG (Q0ZQ42 whole entry H221A): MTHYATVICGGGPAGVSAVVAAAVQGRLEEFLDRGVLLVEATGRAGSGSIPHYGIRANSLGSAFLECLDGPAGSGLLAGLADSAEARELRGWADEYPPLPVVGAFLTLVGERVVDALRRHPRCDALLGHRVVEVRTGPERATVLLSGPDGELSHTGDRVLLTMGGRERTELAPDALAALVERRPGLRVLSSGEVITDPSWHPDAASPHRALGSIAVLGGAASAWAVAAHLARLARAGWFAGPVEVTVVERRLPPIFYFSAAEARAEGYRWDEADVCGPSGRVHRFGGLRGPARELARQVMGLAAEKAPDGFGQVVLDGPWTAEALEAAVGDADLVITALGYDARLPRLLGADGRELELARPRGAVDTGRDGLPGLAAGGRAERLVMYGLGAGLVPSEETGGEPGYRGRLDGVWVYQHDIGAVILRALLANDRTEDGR

Turning to `NCCCP(=O)(O)OP(=O)(O)OC[C@H]1O[C@@H](n2ccc(N)nc2=O)[C@H](O)[C@@H]1O` [compound 4, CMP-5’-3APn], the “NADPH oxidation at 340 nm” value was “FrbG-H221A had significantly higher rates for both NADPH oxidation and substrate hydroxylation”.

For the origin of these results see paper PMC6365201 (Organic & biomolecular chemistry, 2019).
